Test results published in ChEMBL document CHEMBL3124787, “Discovery of novel bis-oxazolidinone compounds as potential potent and selective antitubercular agents” (Bioorg Med Chem Lett, 2014).
Converted amounts (≈) assume the structure as drawn.

Tests used:
[1] = test system: Staphylococcus aureus; test: Antibacterial activity against methicillin-susceptible Staphylococcus aureus ATCC 29213 assessed as growth inhibition after 18 hrs by broth microdilution method; type: functional; conditions: ATCC 29213, 18 h
[2] = Lipophilicity, log P of the compound by HPLC analysis; type: physicochemical
[3] = test system: Mycolicibacterium smegmatis; test: Antibacterial activity against Mycobacterium smegmatis assessed as growth inhibition after 18 hrs by broth microdilution method; type: functional
[4] = test system: Pseudomonas aeruginosa; test: Antibacterial activity against Pseudomonas aeruginosa ATCC 27853 assessed as growth inhibition after 18 hrs by broth microdilution method; type: functional; conditions: ATCC 27853, 18 h
[5] = test system: Staphylococcus aureus; test: Antibacterial activity against methicillin-susceptible Staphylococcus aureus CMCC 26003 assessed as growth inhibition after 18 hrs by broth microdilution method; type: functional; conditions: CMCC 26003, 18 h
[6] = test system: Vero; test: Cytotoxicity against African green monkey Vero cells after 48 hrs by MTT assay; type: cell-based; conditions: Chlorocebus sabaeus
[7] = Selectivity index, ratio of IC50 for African green monkey Vero cells to MIC for Mycobacterium tuberculosis H37RV ATCC 27294; type: toxicity, cell-based; conditions: read-out: Selectivity Index
[8] = test system: Mycobacterium tuberculosis; test: Antitubercular activity against Mycobacterium tuberculosis H37RV ATCC 27294 assessed as growth inhibition after 3 to 11 days by microdilution method; type: functional
[9] = test system: Staphylococcus aureus; test: Antibacterial activity against methicillin-resistant Staphylococcus aureus ATCC 43300 assessed as growth inhibition after 18 hrs by broth microdilution method; type: functional; conditions: ATCC 43300, 18 h
[10] = test system: Staphylococcus aureus; test: Antibacterial activity against methicillin-susceptible Staphylococcus aureus ATCC 6538 assessed as growth inhibition after 18 hrs by broth microdilution method; type: functional; conditions: ATCC 6538, 18 h
[11] = test system: Staphylococcus aureus; test: Antibacterial activity against methicillin-resistant Staphylococcus aureus ATCC 33591 assessed as growth inhibition after 18 hrs by broth microdilution method; type: functional; conditions: ATCC 33591, 18 h
[12] = Aqueous solubility of the compound by HPLC analysis; type: physicochemical
[13] = test system: Staphylococcus aureus; test: Antibacterial activity against methicillin-susceptible Staphylococcus aureus ATCC 25923 assessed as growth inhibition after 18 hrs by broth microdilution method; type: functional; conditions: ATCC 25923, 18 h
[14] = test system: Escherichia coli; test: Antibacterial activity against Escherichia coli ATCC 25922 assessed as growth inhibition after 18 hrs by broth microdilution method; type: functional; conditions: ATCC 25922, 18 h

Row | Compound | MIC99 [1] | logP [2] | MIC99 [3] | MIC99 [4] | MIC99 [5] | IC50 [6] | selectivity ratio [7] | MIC [8] | MIC99 [9] | MIC99 [10] | MIC99 [11] | solubility [12] | MIC99 [13] | MIC99 [14]
1 | CC(=O)NC[C@H]1CN(c2ccc(OC[C@@H]3CN(c4ccccc4)C(=O)O3)c(F)c2)C(=O)O1 | 16 mg/L (≈ 36.1 µM) | 1.78 | > 64 mg/L | > 32 mg/L | 16 mg/L (≈ 36.1 µM) | > 5000 mg/L | > 40000 | 0.125 mg/L (≈ 0.282 µM) | 16 mg/L (≈ 36.1 µM) | 8 mg/L (≈ 18 µM) | 16 mg/L (≈ 36.1 µM) | 14 µM (≈ 6.21 µg/mL) | 16 mg/L (≈ 36.1 µM) | > 32 mg/L
2 | CC(=O)NC[C@H]1CN(c2ccc(OC[C@H]3CN(c4ccccc4)C(=O)O3)c(F)c2)C(=O)O1 | 8 mg/L (≈ 18 µM) | 1.86 | 32 mg/L (≈ 72.2 µM) | > 32 mg/L | 4 mg/L (≈ 9.02 µM) | 63.6 mg/L (≈ 143 µM) | 254 | 0.25 mg/L (≈ 0.564 µM) | 8 mg/L (≈ 18 µM) | 4 mg/L (≈ 9.02 µM) | 16 mg/L (≈ 36.1 µM) | 164 µM (≈ 72.7 µg/mL) | 8 mg/L (≈ 18 µM) | > 32 mg/L
